Reference: patent US7238813B2, “Chemical compounds” (Smithkline Beecham Corporation, priority 2000, dated 2007)
Where a name gives a salt, the structure may show the parent alone.

Columns and labels:
[1] = target: T1, GST-TIE2 (intracellular domains of human TIE2) (Homo sapiens, UniProt Q02763); assay: TIE-2 enzyme assay (TIE2-E), LANCE method; type: biochemical; details: 80 uM ATP
T1 construct: made in house
Summary of the method: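 Baculovirus GST-TIE2 (human intracellular domain, aa 762–1104) preactivated 30 min at RT with 2 mM ATP, then reacted 30 min at RT with 1 μM D1-15 peptide, 80 uM ATP, 10 mM MgCl2, pH 7.4, 2.4% DMSO. EDTA-stopped; LANCE Eu-anti-pTyr/streptavidin-APC read-out. IC50 by nonlinear regression, reported as pIC50.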

[2] = target: T2, TIE2 intracellular domain/c-fms extracellular domain (TIE2/c-fms) chimeric protein expressing mouse 3T3 cells (Homo sapiens, UniProt Q02763); assay: TIE-2 autophosphorylation assay (TIE2-C), ELISA; type: cell-based; details: TIE2/c-fms 3T3 cells, MCSF activation
T2 construct: a TIE2 intracellular domain/c-fms extracellular domain (TIE2/c-fms) chimeric protein; expressed in transfected cells; host or cells: mouse 3T3 cells
T2 sequence (Q02763 770-1124 limits assumed, change not shown): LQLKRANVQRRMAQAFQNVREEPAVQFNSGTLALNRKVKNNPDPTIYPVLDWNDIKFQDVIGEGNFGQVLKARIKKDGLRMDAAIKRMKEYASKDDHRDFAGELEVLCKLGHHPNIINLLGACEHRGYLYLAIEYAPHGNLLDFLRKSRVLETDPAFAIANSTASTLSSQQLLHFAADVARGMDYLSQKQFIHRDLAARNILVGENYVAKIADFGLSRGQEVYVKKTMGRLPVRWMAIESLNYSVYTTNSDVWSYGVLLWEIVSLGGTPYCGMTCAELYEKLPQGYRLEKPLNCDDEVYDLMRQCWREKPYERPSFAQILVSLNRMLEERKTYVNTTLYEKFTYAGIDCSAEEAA
Summary of the method: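 Mouse 3T3 cells expressing TIE2 intracellular/c-fms extracellular chimera treated with compound for 1 hr in serum-free DMEM (0.1% DMSO), then stimulated with MCSF. Lysates captured on anti-c-fms plates overnight at 4 °C; phosphotyrosine detected by biotin-PT66/HRP-streptavidin, OD450. IC50 by nonlinear regression, reported as pIC50.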

GST-VEGFR2 = target: T3, GST-VEGFR2 (Homo sapiens, UniProt P35968); assay: VEGF-R2 enzyme assay (VEGF-E), LANCE method; type: biochemical; details: 75 μM ATP
T3 construct: GST-VEGFR2, baculovirus expressed recombinant constructs of the intracellular domains of human TIE2 tagged by GST; made in house
T3 sequence (P35968 786-1356 limits assumed): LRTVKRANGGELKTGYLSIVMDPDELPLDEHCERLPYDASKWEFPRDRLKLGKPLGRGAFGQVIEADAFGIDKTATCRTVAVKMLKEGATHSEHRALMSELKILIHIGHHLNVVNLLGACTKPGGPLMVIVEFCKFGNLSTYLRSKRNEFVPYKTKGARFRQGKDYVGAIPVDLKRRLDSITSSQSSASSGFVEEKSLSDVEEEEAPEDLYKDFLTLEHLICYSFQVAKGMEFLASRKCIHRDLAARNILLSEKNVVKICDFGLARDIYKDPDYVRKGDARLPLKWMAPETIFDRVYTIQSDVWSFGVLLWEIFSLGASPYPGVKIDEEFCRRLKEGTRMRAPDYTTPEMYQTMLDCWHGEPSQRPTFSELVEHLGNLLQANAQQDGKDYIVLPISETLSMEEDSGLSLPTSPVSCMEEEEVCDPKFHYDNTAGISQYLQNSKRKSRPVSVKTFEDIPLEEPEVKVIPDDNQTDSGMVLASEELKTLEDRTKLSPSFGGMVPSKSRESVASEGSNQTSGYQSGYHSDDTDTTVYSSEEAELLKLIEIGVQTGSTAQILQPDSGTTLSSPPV

[3] = test system: Human umbilical cord endothelial cells (HUVEC); assay: VEGF-driven cellular proliferation assay: BrdU incorporation assay (VEGF-C); type: cell-based; set-up: key to VEGF-C: + = pIC50 of 5.0–6.0; ++ = pIC50 of 6.0–7.0; +++ = pIC50 of > 7.0; − = a negative or inconclusive result; details: for IC50: Homo sapiens
Summary of the method: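 HUVEC (≤6 passages) were plated at 5000 cells/well and exposed to compound 30 min in serum-free M199 containing 0.6% DMSO. Medium with 20 ng/ml VEGF was then added for 24 h, followed by a 24 h pulse with 10 μM BrdU and ELISA read at 450 nm. IC50 from nonlinear regression of percent inhibition was expressed as pIC50.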

T1 sequence (Q02763 762-1104): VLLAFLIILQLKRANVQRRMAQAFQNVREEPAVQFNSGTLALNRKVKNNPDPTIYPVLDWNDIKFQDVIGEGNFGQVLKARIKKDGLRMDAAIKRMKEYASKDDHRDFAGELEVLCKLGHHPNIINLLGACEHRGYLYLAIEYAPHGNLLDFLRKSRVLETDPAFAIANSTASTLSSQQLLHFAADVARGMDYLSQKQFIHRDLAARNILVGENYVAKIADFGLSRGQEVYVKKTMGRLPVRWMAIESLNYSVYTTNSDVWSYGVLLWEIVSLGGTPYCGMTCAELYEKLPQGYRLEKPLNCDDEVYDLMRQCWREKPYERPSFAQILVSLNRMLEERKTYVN

SMILES | IC50 [1] | IC50 [2] | IC50 (GST-VEGFR2) | IC50 [3] | VEGF-C [3]
COC(=O)Nc1nc2ccc(Oc3ccc(NC(=O)Nc4cc(C(F)(F)F)ccc4Cl)cc3)nc2[nH]1 [Example 72, Methyl N-(5-(4-((2-chloro-5-(trifluoromethyl)phenyl)aminocarbonylamino)phenoxy)-3,4-diaza-1H-indole-2-yl)carbamate dihydrochloride] | < 100 nM | < 100 nM | < 100 nM | 1000 to 10000 nM | 
O=C(CCc1cccnc1)Nc1nc2cc(Oc3ccc(NC(=O)Nc4cc(C(F)(F)F)ccc4F)cc3)ccc2[nH]1 [Example 88, N-(5-(4-((2-Fluoro-5-(trifluoromethyl)phenyl)aminocarbonylamino)phenoxy)-1H-benzimidazol-2-yl)-3-(pyridine-3-yl)propionamide] | < 100 nM | < 100 nM | < 100 nM | < 100 nM | 
COC(=O)Nc1nc2cc(Oc3ccc(NC(=O)Nc4cc([N+](=O)[O-])ccc4C)cc3)ccc2[nH]1 [Example 47, Methyl N-(5-(4-((2-methyl-5-nitrophenyl)aminocarbonylamino)phenoxy)-1H-benzimidazol-2-yl)carbamate] | < 100 nM | < 100 nM | < 100 nM |  | −
CN1CCN(Cc2ccc(C(=O)Nc3nc4cc(Oc5ccc(NC(=O)Nc6cc(C(F)(F)F)ccc6F)cc5)ccc4[nH]3)cc2)CC1 [Example 87, N-(5-(4-((2-Fluoro-5-(trifluoromethyl)phenyl)aminocarbonylamino)phenoxy)-1H-benzimidazol-2-yl)-4-(4-methyl-1-piperazinomethyl)benzamide] | < 100 nM | < 100 nM | < 100 nM | 100 to 1000 nM | 
COC(=O)Nc1nc2ccc(Oc3ccc(NC(=O)Nc4cc(C(F)(F)F)ccc4F)cc3)cc2s1 [Example 64, Methyl N-(6-(4-((6-fluoro-3-(trifluoromethyl)phenyl)aminocarbonylamino)phenoxy)-benzthiazol-2-yl)carbamate] | < 100 nM | < 100 nM | < 100 nM | < 100 nM | 
COC(=O)Nc1nc2cc(Oc3ccc(NC(=O)Nc4cccc(SC)c4)cc3)ccc2[nH]1 [Example 48] | < 100 nM | < 100 nM | < 100 nM |  | −
COC(=O)Nc1nc2ccc(Oc3ccc(NC(=O)Nc4cc(Cl)ccc4Cl)cc3)nc2[nH]1.Cl [Example 74, Methyl N-(5-(4-((2,5-dichlorophenyl)aminocarbonylamino)phenoxy)-3,4-diaza-1H-indole-2-yl)carbamate dihydrochloride] | < 100 nM | < 100 nM | < 100 nM |  | −
O=C(Nc1ccc(Oc2ccc3[nH]c(NC(=O)c4ccc(-n5ccnc5)cc4)nc3c2)cc1)Nc1cc(C(F)(F)F)ccc1F [Example 91, N-(5-(4-((2-Fluoro-5-(trifluoromethyl)phenyl)aminocarbonylamino)phenoxy)-1H-benzimidazol-2-yl)-4-(1H-imidazol-1-yl)benzamide] | < 100 nM | < 100 nM | < 100 nM |  | −
COC(=O)Nc1nc2cc(Oc3ccc(NC(=O)Nc4ccc(Cl)c(C(F)(F)F)c4)cc3)ccc2[nH]1 [Example 44, Methyl N-(5-(4-((4-chloro-3-(trifluoromethyl)phenyl)aminocarbonylamino)phenoxy)-1H-benzimidazol-2-yl)carbamate] | < 100 nM | 100 to 1000 nM | < 100 nM |  | −

Second part, led by results:

IC50 [1] | IC50 [2] | IC50 (GST-VEGFR2) | SMILES | IC50 [3] | VEGF-C [3]
< 100 nM | 100 to 1000 nM | 100 to 1000 nM | COC(=O)Nc1nc2cc([S+]([O-])c3ccc(NC(=O)Nc4cc(C(F)(F)F)ccc4F)cc3)ccc2[nH]1 (centres unmarked) [Example 13, Methyl N-(5-(4-((2-fluoro-5-(trifluoromethyl)phenyl)aminocarbonylamino)phenylsulfinyl)-1H-benzimidazol-2-yl)carbamate] |  | −
< 100 nM | < 100 nM | < 100 nM | CC(=O)NCC(=O)Nc1nc2cc(Oc3ccc(NC(=O)Nc4cc(C(F)(F)F)ccc4F)cc3)ccc2[nH]1 [Example 29, N-(5-(4-((2-Fluoro-5-(trifluoromethyl)phenyl)aminocarbonylamino)phenoxy)-1H-benzimidazol-2-yl)-2-(N-acetylamino)acetamide] | 100 to 1000 nM | 
< 100 nM | < 100 nM | < 100 nM | CC(C)(C)OC(=O)Nc1nc2cc(Oc3ccc(NC(=O)Nc4cc(C(F)(F)F)ccc4F)cc3)ccc2[nH]1 [Example 18, t-Butyl N-(5-(4-((2-fluoro-5-(trifluoromethyl)phenyl)aminocarbonylamino)phenoxy)-1H-benzimidazol-2-yl)carbamate] | < 100 nM | 
< 100 nM | < 100 nM | < 100 nM | COC(=O)Nc1nc2cc(Oc3ccc(NC(=O)Nc4cc(C(F)(F)F)ccc4Cl)cc3)ccc2[nH]1 [Example 43] | 1000 to 10000 nM | 
100 to 1000 nM | < 100 nM | < 100 nM | COC(=O)Nc1nc2cc(Oc3ccc(NC(=O)Nc4cc(F)ccc4F)cc3)ccc2[nH]1 [Example 56, Methyl N-(5-(4-((2,5-difluorophenyl)aminocarbonylamino)phenoxy)-1H-benzimidazol-2-yl)carbamate] |  | −
< 100 nM | < 100 nM | < 100 nM | CN(C)CC(=O)Nc1nc2cc(Oc3ccc(NC(=O)Nc4cc(C(F)(F)F)ccc4F)cc3)ccc2[nH]1 [Example 102] | < 100 nM | 
< 100 nM | < 100 nM | < 100 nM | NCC(=O)Nc1nc2cc(Oc3ccc(NC(=O)Nc4cc(C(F)(F)F)ccc4F)cc3)ccc2[nH]1 [Example 30, N-(5-(4-((2-Fluoro-5-(trifluoromethyl)phenyl)aminocarbonylamino)phenoxy)-1H-benzimidazol-2-yl)-2-aminoacetamide dihydrochloride] | 100 to 1000 nM | 
< 100 nM | < 100 nM | < 100 nM | COC(=O)Nc1nc2ccc(Oc3ccc(NC(=O)Nc4cc(C(F)(F)F)ccc4F)cc3)cc2o1 [Example 115, Methyl N-(6-(4-((2-fluoro-5-(trifluoromethyl)phenyl)aminocarbonylamino)phenoxy)benzoxazol-2-yl)carbamate] | < 100 nM | 
< 100 nM | < 100 nM | < 100 nM | CC(C)CCC(=O)Nc1nc2cc(Oc3ccc(NC(=O)Nc4cc(C(F)(F)F)ccc4F)cc3)ccc2[nH]1 [Example 28, N-(5-(4-((2-Fluoro-5-(trifluoromethyl)phenyl)aminocarbonylamino)phenoxy)-1H-benzimidazol-2-yl)-4-methylpentamide] | 100 to 1000 nM | 
< 100 nM | < 100 nM | < 100 nM | COC(=O)Nc1nc2cc(Oc3ccc(NC(=O)Nc4cc(C)ccc4F)cc3)ccc2[nH]1.Cl [Example 55, Methyl N-(5-(4-((2-fluoro-5-methylphenyl)aminocarbonylamino)phenoxy)-1H-benzimidazol-2-yl)carbamate hydrochloride] |  | −
< 100 nM | < 100 nM | < 100 nM | CN(C)CCCC(=O)Nc1nc2cc(Oc3ccc(NC(=O)Nc4cc(C(F)(F)F)ccc4F)cc3)ccc2[nH]1 [Example 92, N-(5-(4-((2-Fluoro-5-(trifluoromethyl)phenyl)aminocarbonylamino)phenoxy)-1H-benzimidazol-2-yl)-4-(dimethylamino)butylamide] | < 100 nM | 
